Measurements reported in article PMC11512107, “Structural and biochemical analysis of ligand binding in yeast Niemann–Pick type C1–related protein” (Life Science Alliance, 2024).

Key:
NTD of NCR1 = biological target: T1, NTD of NCR1 (Saccharomyces cerevisiae, UniProt Q12200); experiment: In vitro liposome crosslinking assay of pac-lipids with the NTD; assay type: binding; conditions: liposomes with 1.5 mol% pac-lipid (1 μM), 1.5 μM NTD, average ratio
T1 construct: residues 1–249, UniProt: Q12200; thrombin cleavage site (C); deca-histidine tag (C, cleaved yes); made in house; host or cells: Saccharomyces cerevisiae strain DSY-5
Excerpt: In a parallel approach, the substrate scope of the NTD and NPC2 was probed with photo-activatable and clickable (pac) lipids. Pac-lipids contain small chemical modifications for click chemistry reactions, with fluorophores such as AF647 (a structural analog of Alexa Fluor 647), and for UV-activated photo-crosslinking, respectively ([45]). In contrast to NBD-tagged lipids delivered in solution, pac-lipids such as pac-cholesterol (pacChol), pac-phosphatidylcholine (pacPC), pac-sphingosine (pacSph), and pac-ceramide (pacCer) were reconstituted in liposomal membranes (Fig 5A and B). As expected, the delipidated NTD crosslinks with pacChol (average +UV/−UV ratio = 2.11). Crosslinking of the NTD with pacSph (+UV/−UV = 1.73) and, to a lesser extent, with pacCer and pacPC (+UV/−UV = 1.40 and 1.12), respectively, was also detected (Fig 5C and D).
Lipids from stock vials were dissolved in chloroform and mixed at the desired molar ratio. […]
Extruded liposomes were diluted in PBS until a final lipid concentration of 60 μM, including 1 μM pac-lipid. […] Data were evaluated by subtracting background fluorescence, followed by comparing the AF647 signal between crosslinked and non-crosslinked samples, normalized to protein loading based on Coomassie staining. […] Statistics were calculated with the Mann–Whitney U test.

NPC2 = biological target: T2, NPC2 (Saccharomyces cerevisiae, UniProt Q12408); experiment: In vitro liposome crosslinking assay of pac-lipids with NPC2; assay type: binding; conditions: liposomes with 1.5 mol% pac-lipid (1 μM), 1.5 μM NPC2
T2 construct: residues 1–173, UniProt: Q12408; thrombin cleavage site (C); deca-histidine tag (C, cleaved yes); made in house; host or cells: Saccharomyces cerevisiae strain DSY-5
T2 sequence (Q12408 22-173): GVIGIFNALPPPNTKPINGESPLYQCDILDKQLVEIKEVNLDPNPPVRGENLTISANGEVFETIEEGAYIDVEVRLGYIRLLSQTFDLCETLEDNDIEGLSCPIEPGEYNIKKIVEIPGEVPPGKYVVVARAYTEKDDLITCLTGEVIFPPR
Description: To compare with the interaction profile of the NTD, crosslinking assays were also performed with purified, delipidated NPC2 (Fig S4A and B). […] NPC2 crosslinks well with all tested pac-lipids but, as for the NTD, most strongly with pacChol (+UV/−UV ratio = 1.91). Robust and consistent crosslinking with pacSph (+UV/−UV ratio = 1.64), pacCer (+UV/−UV = 1.67), and pacPC (+UV/−UV = 1.63) were observed. The crosslinking efficiency for cholesterol and sphingosine analogs was higher for the NTD, whereas crosslinking with ceramide and PC analogs seemed stronger with NPC2.
Lipids from stock vials were dissolved in chloroform and mixed at the desired molar ratio. For in vitro crosslinking, most liposomes consisted of 88.5 mol% DOPC as carrier lipid, 10 mol% DOPS, and 1.5 mol% respective pac-lipid. The pac-lipids were incorporated into liposomes at low concentrations (1.5 mol%) to ensure homogenous distribution and avoid micelle formation. The solvent was evaporated in a rotary evaporator (Hei-VAP Core, Heidolph) for 30 min at 42°C at 150 rpm to create a thin lipid film. Lipid films were hydrated with filtered and degassed PBS (137 mM NaCl, 2.7 mM KCl, 10 mM Na2HPO4, 1.8 mM KH2PO4, pH 7.4). Solutions of hydrated lipids (with a total lipid concentration of 2 mM) were subjected to five freeze–thaw cycles in liquid nitrogen and warm water (42°C) to facilitate breakup of large structures and support formation of smaller multilamellar vesicles. Lipid solutions were stored at −20°C. Before use, liposomes were extruded by passing 20x through a 100-nm pore size polycarbonate filter (Nuclepore; Whatman) using a hand extruder (Avanti Polar Lipids). Extruded liposomes were stored at 4°C, protected from light, and used within 1–2 d.
Extruded liposomes were diluted in PBS until a final lipid concentration of 60 μM, including 1 μM pac-lipid. Purified proteins were added until a final concentration of 1.5 μM in a reaction volume of 100 μl. Protein–liposome mixtures were incubated in 0.5-ml Eppendorf tubes for 30 min at 37°C at 400 rpm (Comfort thermomixer, Eppendorf), then crosslinked (or not) by exposure to 365-nm UV light for 15 min at 4°C using a 100-W mercury lamp (Blak-Ray B-100AP). After crosslinking, the click reaction was performed by adding 0.7 μl of freshly prepared click mix into the sample tubes. The final concentrations of click reagents in sample tubes were 80 μM CuSO4 (Merck), 3 μM TBTA (Merck), 3 μM AF647-picolyl azide (Jena Bioscience), and 80 μM ascorbic acid (Merck). Fresh stock of ascorbic acid solution in water was prepared every time and added to the click mix immediately before starting the click reaction. Click reactions were allowed to proceed for 2 h at 37°C at 400 rpm with the thermomixer. Then, samples were concentrated in a vacuum evaporator for 30 min set to 30°C and supplemented with 4x Lämmli buffer (250 mM Tris, pH 6.8, 9.2% SDS, 40% glycerol, 0.2% bromophenol blue, 100 mM DTT). Samples were boiled for 5 min at 95°C, and clicked protein–lipid complexes were resolved by SDS–PAGE. After extensive destaining in a destain solution (65% water, 25% isopropanol, and 10% acetic acid), the AF647 (a structural analog of Alexa Fluor 647) and Coomassie images were acquired using the LI-COR Odyssey imaging system. Data were evaluated by subtracting background fluorescence, followed by comparing the AF647 signal between crosslinked and non-crosslinked samples, normalized to protein loading based on Coomassie staining. The resulting values are described as +UV/−UV ratios. Statistics were calculated with the Mann–Whitney U test.

NPC2 to the NTD = biological target: T3, NPC2 to the NTD (Saccharomyces cerevisiae, UniProt Q12200); experiment: In vitro pac-lipid transfer assay from NPC2 to the NTD; assay type: biochemical; conditions: His-tagged NPC2 preloaded with soluble pac-lipid; GFP baseline, STARD3 negative control
T3 construct: residues 1–249, UniProt: Q12200; residues 1–173, UniProt: Q12408; deca-histidine tag (C, cleaved yes); made in house; host or cells: Saccharomyces cerevisiae strain DSY-5
Excerpt: The consistent interaction of sphingosine with both the NTD and NPC2 observed in this study inspired us to examine whether the transfer of pacSph between the two proteins could be reconstituted in vitro. To this end, a protein-to-protein sphingosine transfer assay using solubilized, free pacSph was designed (Fig 6A). […] As a control for specificity of transfer, the lipid binding domain of a mammalian STARD3 (His-STARD3-StART) was used because this protein was previously shown to interact with sphingosine in related work ([51] Preprint), but it is not located inside lysosomes and, therefore, is not expected to interact with the NTD. His-tagged NPC2, His-sfGFP, or His-STARD3-StART were immobilized on NiNTA beads, preloaded with pacSph, and incubated with the NTD. After removal of the beads, the NTD was subjected to UV crosslinking and clicked with a fluorophore, and the resulting lipid–protein complexes were visualized by SDS–PAGE.
Purified His-tagged proteins (5 μM of sfGFP, STARD3, or NPC2) were incubated with 10 μM pacSph in PBS for 60 min at 25°C at 500 rpm (Comfort thermomixer, Eppendorf). Next, the His-tagged proteins were captured on NiNTA beads and washed 5x with PBS to remove unbound pacSph. […] For data analysis, the background was subtracted and the +UV/−UV ratios were quantified for each sample as described previously. […] Statistics were calculated with the Mann–Whitney U test.

T1 sequence (Q12200 20-249): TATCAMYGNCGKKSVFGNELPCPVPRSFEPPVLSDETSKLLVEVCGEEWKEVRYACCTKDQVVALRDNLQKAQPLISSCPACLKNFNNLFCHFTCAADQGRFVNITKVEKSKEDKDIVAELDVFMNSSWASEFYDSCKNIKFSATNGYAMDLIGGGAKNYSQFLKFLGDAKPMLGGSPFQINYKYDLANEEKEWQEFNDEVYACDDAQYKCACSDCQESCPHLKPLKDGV
T3 sequence (Q12200 20-249): as above

+UV/−UV ratio (crosslinking with NTD) (NTD of NCR1): 1.73 | +UV/−UV ratio (crosslinking with NPC2) (NPC2): 1.64 | transfer of pac-lipid from NPC2 to the NTD (crosslinking with NTD) (NPC2 to the NTD): increased crosslinking
Compound: C#CCCCC1(CCCCCCCC/C=C/[C@H](O)[C@H](N)CO)N=N1 [pacSph]
